{
  "source": "patent US6426087B1",
  "about": "“Orally administrable immediate-release and prolonged-release galenic form comprising an absorption-promoting agent and use of this absorption-promoting agent” (Merck Patent Gesellschaft mit, priority 1998, dated 2002)",
  "key": {"Caco-2 line": {"tested_on": "Caco-2 line", "assay": "Permeability of carbon 14-labelled acamprosate with promoting agents in the Caco-2 cellular model (diffusion chamber)", "type": "in vitro ADME, human", "conditions": "Papp of acamprosate", "source_text": "(§1) Actions of various promoting agents or mixtures of promoting agents on the permeability of calcium acetylhomotaurinate, in the Caco-2 cellular model.\n(§2) A solution of carbon 14-labelled acamprosate, of known concentration, is placed in the apical compartment of a Grass Sweetana-type diffusion chamber which comprises a second so-called basolateral compartment separated from the first by an insert supporting a monocellular confluent culture of human colon adenocarcinoma […] epithelial cells, Caco-2 line.\n(§3) Samples are collected at regular intervals from the second basolateral compartment. The acamprosate concentration is determined by […]. A simple calculation makes it possible to obtain the apparent permeability coefficient (Papp). The acamprosate solution is supplemented with various promoting agents or mixtures of promoting agents, under varying conditions. The influence of these agents on the apparent permeability coefficient (Papp) was measured. The experimental results are grouped together in the following table where the apparent permeability coefficient values (Papp) are expressed in cm/s."}, "[1]": {"assay": "Permeability of carbon 14-labelled acamprosate with promoting agents in the Caco-2 cellular model (diffusion chamber)", "type": "in vitro ADME, human", "conditions": "human, Caco-2; acamprosate solution, promoting agent: None; apical to basolateral; read-out: Papp, Mean (n = 6)", "source_text": "as §1, §2, §3"}},
  "data": [
    {"smiles": "C[C@H](CCC(=O)NCC(=O)[O-])[C@H]1CC[C@H]2[C@@H]3[C@H](O)C[C@@H]4C[C@H](O)CC[C@]4(C)[C@H]3C[C@H](O)[C@]12C.[Na+]", "note": "[Na glycocholate, sodium glycocholate]", "values": [
      {"measurement": "Papp, Mean (n = 6)", "setting": "Caco-2 line; promoting agent Conc. 0.2 % m/v", "value": "114 10^−7 cm/s"}
    ]},
    {"smiles": "CCCCCCCCCC(=O)O", "note": "[Capric]", "values": [
      {"measurement": "Papp, Mean (n = 6)", "setting": "Caco-2 line; promoting agent Conc. 0.25 % m/v", "value": "63.6 10^−7 cm/s"}
    ]},
    {"smiles": "CC(=O)NCCCS(=O)(=O)O", "note": "[acamprosate, calcium 3-acetylamino-1-propanesulphonate, reference compound]", "values": [
      {"measurement": "Papp A→B", "setting": "[1]", "value": 2.4, "unit": "×10⁻⁶ cm/s"}
    ]}
  ]
}
